Laboratory results published in patent US20020025940A1, “Methods and compositions for sensitive and rapid, functional identification of genomic polynucleotides and use for cellular assays in drug discovery” (Aurora Biosciences Corporation, priority 1997, published 2002).

Experiments:
Assay type in all cases: cell-based, human
[1] = test system: clone C2 (3×NFAT response element linked to beta-lactamase, M1 muscurinic receptor); assay: Relative beta-lactamase activity of control clone C2; conditions: PMA 8 nM, Thaps 1 microM, CsA 100 nM, PHA 10 microgram/ml
Text: (§1) Isolated clones from PHA-induced (Example 6) and PHA-repressed (Example 7) procedures described above were characterized to determine the specificity of their modulation and time required for induction or repression. Clones were stimulated with multiple activators or inhibitors over a one to twenty-four hour time interval.
(§2) In this study, PMA, which is a PKC activator, Thapsigargin which increases intracellular calcium, PHA which activates the T-cell receptor pathway, and cyclosporin A which is a clinically approved immunosuppressant that inhibits the Ca^2+ dependent phosphates calcineurin were investigated for their ability to modulate beta-lactamase expression in PHA induced and repressed BLEC clones.

[2] = test system: induced BLEC Jurkat clones; assay: Characterization of induced BLEC Jurkat clones, change in 460/530 ratio; conditions: PHA 10 microgram/ml, Thaps 1 microM, PMA 8 nM, Anti-CD3 2 microgram/ml
Text: These clones represent cells in which the trapping construct had integrated into a gene up regulated by PHA (T-cell) activation. Thus, these cells report the transcriptional activation of a gene upon cellular activation. Individual clones were identified and isolated by FACS using CCF2/AM to detect beta-lactamase activity. This clone isolation method, the induced sorting paradigm, used three sequential and independent stimulation and sorting protocols. […] These control cells were all green.
These isolated clones were expanded and tested for PHA inducibility by microscopic inspection with and without PHA stimulation in the presence of CCF2/AM. A total of fifty-five PHA inducible clones were identified using this procedure. The PHA inducibility for these clones ranged from a 1.5 to 40 fold change in the 460/530 ratio as compared to unstimulated control cells. Genomic Southern analysis using a DNA probe encoding beta-lactamase established that these clones represented 34 independent stable vector integration events. A list of clones obtained by the methods of the present invention and their characteristics is provided below in Table 6 and Table 7.
In addition to PHA inducible clones, Phobol 12-myristate 13-acetate (PMA) (Calbiochem), Thapsigargin (Thaps) (Calbiochem), and PMA+Thaps inducible clones were isolated using the general procedure set forth above using the indicated inducer rather than PHA. PMA is a specific activator of PKC (protein kinase C) and Thaps is a specific activator of intracellular calcium ion release (Thaps). These clones were isolated using three rounds of FACS using the general procedures described for the PHA inducible clones in Example 5. In such instances, other stimulants were substituted for PHA. PMA was provided at 8 nM, Thaps was provided at 1 microM. When these two stimulants were combined, their concentration was not changed. […] By using varied selection conditions, it is possible to isolate functionally distinct clones downstream of the desired signaling target.
Table 7 and Table 8 provide data similar to that provided in Table 5 for all of the clones obtained by the methods of Examples 5 to 7.

BLEC Jurkat clones = assay: Specificity of activated BLEC Jurkat clones, relative beta-lactamase activity; conditions: PMA 8 nM, Thaps 1 microM, CsA 100 nM, PHA 10 microgram/ml
Text: as §1, §2

C/C=C(/C)C(=O)O[C@H]1C(C)=C2[C@H]([C@@H]1OC(=O)CCCCCCC)[C@@](C)(OC(C)=O)C[C@H](OC(=O)CCC)[C@@]1(O)[C@H]2OC(=O)[C@@]1(C)O [Thaps, Thapsigargin]
Relative Beta-Lactamase Activity of the Clone by the Indicated Stimulus After 24 hours (% of maximum activated stimuli) [1]: 0%
Change in 460/530 ratio in the indicated clone by the following activator ([2]; clone J83PI1): 3-4
Change in 460/530 ratio in the indicated clone by the following activator ([2]; clone J83PI2): 1-2
Change in 460/530 ratio in the indicated clone by the following activator ([2]; clone J83PI3): 6-7
Change in 460/530 ratio in the indicated clone by the following activator ([2]; clone J83PI4): 3-4
Change in 460/530 ratio in the indicated clone by the following activator ([2]; clone J83PI6): 7-8
Change in 460/530 ratio in the indicated clone by the following activator ([2]; clone J83PI7): 2
Change in 460/530 ratio in the indicated clone by the following activator ([2]; clone J83PI8): 1-2
Change in 460/530 ratio in the indicated clone by the following activator ([2]; clone J83PI9): 5-6
Change in 460/530 ratio in the indicated clone by the following activator ([2]; clone J83PI13): 2-3
Change in 460/530 ratio in the indicated clone by the following activator ([2]; clone J83PI14): 2
Change in 460/530 ratio in the indicated clone by the following activator ([2]; clone J83PI15): 2
Change in 460/530 ratio in the indicated clone by the following activator ([2]; clone J83PI16): 1-2
Change in 460/530 ratio in the indicated clone by the following activator ([2]; clone J83PI18): 7-8
Change in 460/530 ratio in the indicated clone by the following activator ([2]; clone J83PI19): 1-2
Change in 460/530 ratio in the indicated clone by the following activator ([2]; clone J97PI1): 3-4
Change in 460/530 ratio in the indicated clone by the following activator ([2]; clone J97PI3): 1-2
Change in 460/530 ratio in the indicated clone by the following activator ([2]; clone J97PI4): 1-2
Change in 460/530 ratio in the indicated clone by the following activator ([2]; clone J97PI5): 1.9
Change in 460/530 ratio in the indicated clone by the following activator ([2]; clone J97PI6): 4-6
Change in 460/530 ratio in the indicated clone by the following activator ([2]; clone J97PI7): 4-5
Change in 460/530 ratio in the indicated clone by the following activator ([2]; clone J97PI8): 3-4
Change in 460/530 ratio in the indicated clone by the following activator ([2]; clone J97PI9): 4-5
Change in 460/530 ratio in the indicated clone by the following activator ([2]; clone J97PI10): 3-4
Change in 460/530 ratio in the indicated clone by the following activator ([2]; clone J97PI11): 5-6
Change in 460/530 ratio in the indicated clone by the following activator ([2]; clone J97PI12): 5-6
Change in 460/530 ratio in the indicated clone by the following activator ([2]; clone J97PI13): 5-6
Change in 460/530 ratio in the indicated clone by the following activator ([2]; clone J97PI14): 3-4
Change in 460/530 ratio in the indicated clone by the following activator ([2]; clone J97PI15): 3-4
Change in 460/530 ratio in the indicated clone by the following activator ([2]; clone J97PI17): 7-8
Change in 460/530 ratio in the indicated clone by the following activator ([2]; clone J97PI18): 3-4
Change in 460/530 ratio in the indicated clone by the following activator ([2]; clone J97PI19): 2-3
Change in 460/530 ratio in the indicated clone by the following activator ([2]; clone J97PI20): 2-3
Change in 460/530 ratio in the indicated clone by the following activator ([2]; clone J97PI21): 2-3
Change in 460/530 ratio in the indicated clone by the following activator ([2]; clone J97PI22): 5-7
Change in 460/530 ratio in the indicated clone by the following activator ([2]; clone J97PI23): 4-5
Change in 460/530 ratio in the indicated clone by the following activator ([2]; clone J97PI24): 3-4
Change in 460/530 ratio in the indicated clone by the following activator ([2]; clone J97PI116): 3-4
Change in 460/530 ratio in the indicated clone by the following activator ([2]; clone J325B11): 1-2
Change in 460/530 ratio in the indicated clone by the following activator ([2]; clone J326C9): 1-2
Change in 460/530 ratio in the indicated clone by the following activator ([2]; clone J326D4): 0
Change in 460/530 ratio in the indicated clone by the following activator ([2]; clone J389PM2): 3-4
Change in 460/530 ratio in the indicated clone by the following activator ([2]; clone J389PM3): 2-3
Change in 460/530 ratio in the indicated clone by the following activator ([2]; clone J389PM5): 3-4
Change in 460/530 ratio in the indicated clone by the following activator ([2]; clone J389PM7): 2-3
Change in 460/530 ratio in the indicated clone by the following activator ([2]; clone J389PM8): 3-4
Change in 460/530 ratio in the indicated clone by the following activator ([2]; clone J389PT4): 10
Change in 460/530 ratio in the indicated clone by the following activator ([2]; clone J389PTt): 3-4
Change in 460/530 ratio in the indicated clone by the following activator ([2]; clone J389TI1): 2-3
Change in 460/530 ratio in the indicated clone by the following activator ([2]; clone J389TI4): 3-4
Relative Beta-Lactamase Activity of the Clone by the Indicated Stimulus After 24 hours (% of maximum activated stimuli) (BLEC Jurkat clones; clone J32-6D4): 1-2%
Relative Beta-Lactamase Activity of the Clone by the Indicated Stimulus After 24 hours (% of maximum activated stimuli) (BLEC Jurkat clones; clone J83 97-PPTR2 (repressed paradigm)): 85%
Relative Beta-Lactamase Activity of the Clone by the Indicated Stimulus After 24 hours (% of maximum activated stimuli) (BLEC Jurkat clones; clone J83-PI9): 100%
Relative Beta-Lactamase Activity of the Clone by the Indicated Stimulus After 24 hours (% of maximum activated stimuli) (BLEC Jurkat clones; clone J83-PTI8): 100%
Relative Beta-Lactamase Activity of the Clone by the Indicated Stimulus After 24 hours (% of maximum activated stimuli) (BLEC Jurkat clones; clone J389-PTI4): 5%
